PMC6707612, “Cyclic-di-GMP binds to histidine kinase RavS to control RavS-RavR phosphotransfer and regulates the bacterial lifestyle transition between virulence and swimming” (PLoS Pathogens, 2019)
“And” between values parts separate entries of the source, which are not always exact repeats. Equal values may be shown once.

How the values were obtained:
RavS^ΔTrM = target: T1, RavS^ΔTrM (Xanthomonas campestris pv. campestris, UniProt Q8P9A6); test: microscale thermophoresis (MST) binding; details: 20 nM fluorescein-labelled nucleotide, read-out: dissociation constant (Kd)
T1 sequence (Q8P9A6 47-697): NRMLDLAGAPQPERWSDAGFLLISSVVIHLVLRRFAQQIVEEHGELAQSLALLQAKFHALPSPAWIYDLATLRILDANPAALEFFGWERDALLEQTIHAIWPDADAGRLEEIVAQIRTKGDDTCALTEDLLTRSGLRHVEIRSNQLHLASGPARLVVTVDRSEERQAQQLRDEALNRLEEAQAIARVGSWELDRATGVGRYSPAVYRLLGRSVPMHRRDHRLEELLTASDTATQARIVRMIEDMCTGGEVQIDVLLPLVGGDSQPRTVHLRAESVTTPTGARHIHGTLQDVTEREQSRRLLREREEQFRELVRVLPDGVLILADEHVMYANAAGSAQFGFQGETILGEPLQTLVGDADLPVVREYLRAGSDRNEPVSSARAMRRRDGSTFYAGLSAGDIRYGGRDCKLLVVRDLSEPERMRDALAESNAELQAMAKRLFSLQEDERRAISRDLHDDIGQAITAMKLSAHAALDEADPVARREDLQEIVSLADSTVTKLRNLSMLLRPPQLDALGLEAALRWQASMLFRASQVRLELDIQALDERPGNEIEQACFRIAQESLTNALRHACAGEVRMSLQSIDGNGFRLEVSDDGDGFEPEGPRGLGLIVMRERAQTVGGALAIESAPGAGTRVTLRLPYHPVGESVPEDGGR
Protocol: (§1) (a) c-di-GMP enhances RavS-RavR phosphotransfer in vitro. A total of 5 μM RavS^ΔN was autophosphorylated for 15 min by the addition of 10 μCi [γ-^32P]ATP. A total of 15 μM RavR^ΔEAL or RavR^ΔEAL(D496A) was added and incubated for 30 min at 25°C. A total of 100 μM c-di-GMP was added if necessary. The reactions were terminated with 5× SDS loading buffer before autoradiography. The experiment was repeated three times. (b) Time course analyses of the impact of c-di-GMP on the velocity of RavS-RavR phosphotransfer. The autophosphorylation and phosphotransfer reactions were set as mentioned in (a). Various concentrations of c-di-GMP were added to the reactions and isotopic signals (band intensities) of RavS~P were measured after autoradiography. (c–d) c-di-GMP triggered an increase in RavS-RavR phosphotransfer in a dose-dependent manner. (c) Various concentrations of c-di-GMP (0, 5, 10, 15, 30, 50, 75 and 100 μM) were added to the RavS-RavR phosphotransfer reactions. (d) The phosphorylated level of RavS^ΔN~P was quantified by ImageJ and the EC50 value was estimated by Origin 8.5 software. In (b) and (d), the intensity of each data point is the average from three experimental repeats. (e) c-di-GMP triggered increase in RavS-RavR phosphotransfer is highly specific. […] The interaction between RavS^ΔTrM and various nucleotides, including fl-c-di-GMP, fl-cGMP and fl-c-di-AMP, were measured by microscale thermophoresis (MST). A total of 20 nM fluorescein-labelled nucleotides and increasing concentrations of proteins were incubated and measured by MST. The dissociation constant (Kd) was quantified to estimate the binding affinity. […]
The interaction between c-di-GMP nucleotides and various proteins was measured by using MST with a fluorescein-labelled c-di-GMP (2′-Fluo-AHC-c-di-GMP, abbreviated as fl-c-di-GMP; 2′-Fluo-AHC-c-di-AMP, fl-c-di-AMP; 2′-Fluo-AHC-cGMP, fl-cGMP; Biolog, Germany). These chemicals contain carboxyfluorescein that has excitation and emission wavelengths of 497 nm and 520 nm, respectively, which can be detected directly by a MST instrument. […]

RavS^ΔN [1] = target: T2, RavS^ΔN (Xanthomonas campestris pv. campestris, UniProt Q8P9A6); test: in vitro RavS-RavR phosphotransfer assay (RavS~P level by autoradiography); assay type: biochemical
T2 sequence (Q8P9A6 352-697): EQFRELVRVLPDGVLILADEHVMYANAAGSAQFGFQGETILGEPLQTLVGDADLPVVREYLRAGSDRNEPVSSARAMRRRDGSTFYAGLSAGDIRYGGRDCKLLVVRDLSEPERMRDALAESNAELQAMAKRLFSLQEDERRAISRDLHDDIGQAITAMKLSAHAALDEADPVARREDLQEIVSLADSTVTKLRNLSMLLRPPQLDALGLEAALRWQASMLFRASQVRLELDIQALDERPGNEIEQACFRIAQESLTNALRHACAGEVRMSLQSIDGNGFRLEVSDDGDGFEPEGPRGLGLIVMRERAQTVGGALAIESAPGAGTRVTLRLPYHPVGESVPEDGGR
Protocol: (a) c-di-GMP enhances RavS-RavR phosphotransfer in vitro. A total of 5 μM RavS^ΔN was autophosphorylated for 15 min by the addition of 10 μCi [γ-^32P]ATP. A total of 15 μM RavR^ΔEAL or RavR^ΔEAL(D496A) was added and incubated for 30 min at 25°C. A total of 100 μM c-di-GMP was added if necessary. The reactions were terminated with 5× SDS loading buffer before autoradiography. The experiment was repeated three times. (b) Time course analyses of the impact of c-di-GMP on the velocity of RavS-RavR phosphotransfer. The autophosphorylation and phosphotransfer reactions were set as mentioned in (a). Various concentrations of c-di-GMP were added to the reactions and isotopic signals (band intensities) of RavS~P were measured after autoradiography. (c–d) c-di-GMP triggered an increase in RavS-RavR phosphotransfer in a dose-dependent manner. (c) Various concentrations of c-di-GMP (0, 5, 10, 15, 30, 50, 75 and 100 μM) were added to the RavS-RavR phosphotransfer reactions. (d) The phosphorylated level of RavS^ΔN~P was quantified by ImageJ and the EC50 value was estimated by Origin 8.5 software. In (b) and (d), the intensity of each data point is the average from three experimental repeats. (e) c-di-GMP triggered increase in RavS-RavR phosphotransfer is highly specific. […] (f) RavS specifically interacts with fl-c-di-GMP. The interaction between RavS^ΔTrM and various nucleotides, including fl-c-di-GMP, fl-cGMP and fl-c-di-AMP, were measured by microscale thermophoresis (MST). A total of 20 nM fluorescein-labelled nucleotides and increasing concentrations of proteins were incubated and measured by MST. The dissociation constant (Kd) was quantified to estimate the binding affinity. Each experiment was repeated three times.
An in vitro autophosphorylation assay was conducted as described in our previous study. Purified protein was incubated with 10 μM ATP containing 10 μCi [γ-^32P]ATP (PerkinElmer, USA) in the reaction buffer (50 mM Tris-HCl, pH 7.8, 25 mM NaCl, 25 mM KCl, 5 mM MgCl2, 2 mM DTT) for the indicated time at 28°C. If necessary, c-di-GMP was added to the mixture at the same time as ATP. For the phosphoryl transfer assay, purified RR protein or its derivative was added into the reaction mixture containing the phosphorylated HK. The autophosphorylation or phosphoryl transfer reaction was terminated by adding 5× SDS-PAGE loading buffer. Phosphorylated proteins were separated by 12% SDS-PAGE. After electrophoresis, gels were exposed to a phosphor screen (GE Healthcare) and the autoradiographic signals were detected by a Typhoon FLA7000 (GE Healthcare).

RavS^ΔN [2] = target: T2, RavS^ΔN; test: in vitro autophosphorylation assay; assay type: biochemical; details: 100 μM c-di-GMP, no RavR added
Protocol: as §1, with “(c) Various concentrations of c-di-GMP (0, 5, 10, 15, 30, 50, 75 and 100 μM) were added to the RavS-RavR phosphotransfer reactions.” left out, “software.” for “software. In (b) and (d), the intensity of each data point is the average from three experimental repeats. (e) c-di-GMP triggered increase in RavS-RavR phosphotransfer is highly specific.”

Nc1nc2c(ncn2[C@@H]2O[C@@H]3COP(=O)(O)O[C@H]4[C@@H](OC(=O)NCCCCCCNC(=O)c5ccc6c(c5)C(=O)OC65c6ccc(O)cc6Oc6cc(O)ccc65)[C@H](n5cnc6c(=O)[nH]c(N)nc65)O[C@@H]4COP(=O)(O)O[C@H]3[C@H]2O)c(=O)[nH]1 [fl-c-di-GMP, 2′-Fluo-AHC-c-di-GMP]
Kd (RavS^ΔTrM): 6.06 ± 0.92 µM

Nc1nc2c(ncn2[C@@H]2O[C@@H]3COP(=O)(O)O[C@H]4[C@@H](O)[C@H](n5cnc6c(=O)[nH]c(N)nc65)O[C@@H]4COP(=O)(O)O[C@H]3[C@H]2O)c(=O)[nH]1 [c-di-GMP, Cyclic di-GMP]
EC50 (RavS^ΔN [1]; 5 μM RavS^ΔN, 15 μM RavR^ΔEAL, 30 min at 25°C, RavS^ΔN~P level quantified by ImageJ, read-out: median effect concentration (EC50) on RavS-RavR phosphotransfer): 15.6 µM and ~15.6 µM | T50: time that signal intensity of RavS~P decreased to half of the initiation stage (RavS^ΔN [1]; 15 μM c-di-GMP present, without c-di-GMP 38.2 min): 16.9 min | effect on RavS^ΔN autophosphorylation (autokinase activity) (RavS^ΔN [2]): does not affect
